Series [1] is described as follows: Intrinsic clearance in human liver microsomes at 1 uM after 30 mins in presence of NADPH. The format is ADME. To be noted: read-out: CLH.
The next series addresses T1, Hexokinase-4 (Homo sapiens, UniProt P35557).
T1 sequence (P35557 whole entry): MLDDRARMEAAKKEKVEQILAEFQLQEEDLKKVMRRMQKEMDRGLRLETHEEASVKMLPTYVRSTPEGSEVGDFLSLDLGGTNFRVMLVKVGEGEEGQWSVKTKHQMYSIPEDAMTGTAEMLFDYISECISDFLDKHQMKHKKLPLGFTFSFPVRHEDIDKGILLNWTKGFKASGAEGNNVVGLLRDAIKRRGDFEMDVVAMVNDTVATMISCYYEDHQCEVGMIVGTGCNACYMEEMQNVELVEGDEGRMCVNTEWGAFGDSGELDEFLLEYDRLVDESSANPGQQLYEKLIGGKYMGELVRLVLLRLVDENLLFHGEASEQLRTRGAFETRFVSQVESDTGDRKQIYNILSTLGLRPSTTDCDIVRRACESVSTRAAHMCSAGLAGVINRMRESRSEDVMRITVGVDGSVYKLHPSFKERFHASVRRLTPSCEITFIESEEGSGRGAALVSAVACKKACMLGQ
As to the kind of experiment: Inhibition of fluorescein-labeled human GK interaction with biotin-labeled human GKRP compound incubated for 20 mins prior to addition of fluorescein-labeled GK measured after 2 to 4 hrs by AlphaScreen assay. (Alpha assays give light when donor and acceptor beads are brought close together.)

Series [2] can be described thus: Intrinsic clearance in rat liver microsomes at 1 uM after 30 mins in presence of NADPH. The format is ADME. Conditions: read-out: CLH. Background: Liver microsomes are vesicles of endoplasmic reticulum, rich in cytochrome P450 enzymes.

In the case of `Nc1ccc(S(=O)(=O)N2CCN(c3ccc(C(O)(C(F)(F)F)C(F)(F)F)cn3)CC2)cn1`, the microsomal CLint at 1 µM in series [1] and in series [2] was < 14 µL/min/mg each time. On Hexokinase-4, half-maximal inhibition (IC50) required 0.176 µM.

For the compound `Nc1ccc(S(=O)(=O)N2CCN(c3ncc(C(O)(C(F)(F)F)C(F)(F)F)cc3-c3cnccc3F)CC2)cn1`, the microsomal CLint at 1 µM came to 17 µL/min/mg in series [1] and 22 µL/min/mg in series [2]. 0.024 µM corresponded to half-maximal inhibition on Hexokinase-4 (IC50).

For the compound `Nc1ccc(S(=O)(=O)N2CCN(c3ncc(C(O)(C(F)(F)F)C(F)(F)F)cc3-c3cc4ccccc4[nH]3)CC2)cn1`, the microsomal CLint at 1 µM in series [1] was < 14 µL/min/mg; in series [2] it was 146 µL/min/mg. This compound also returned an IC50 at Hexokinase-4 of 0.027 µM.

`CC(C)(C)n1cc(-c2cc(C(O)(C(F)(F)F)C(F)(F)F)cnc2N2CCN(S(=O)(=O)c3ccc(N)nc3)CC2)cn1`: the microsomal CLint at 1 µM is 86 µL/min/mg in series [1] and 459 µL/min/mg in series [2]. Besides, half-maximal inhibition on Hexokinase-4 (IC50) was put at 0.087 µM.

Consider `Nc1ccc(S(=O)(=O)N2CCN(c3ncc(C(O)(C(F)(F)F)C(F)(F)F)cc3-c3ccc4sccc4c3)CC2)cn1`, for which the results for the microsomal CLint at 1 µM in series [1] and in series [2] were 48 µL/min/mg and 487 µL/min/mg, respectively. The IC50 on Hexokinase-4 amounted to 0.047 µM.

With `Nc1ccc(S(=O)(=O)N2CCN(c3ncc(C(O)(C(F)(F)F)C(F)(F)F)cc3-c3ccc4c(c3)CC(=O)N4)CC2)cn1`, the microsomal CLint at 1 µM is < 14 µL/min/mg in series [1] and 119 µL/min/mg in series [2]. The compound also displayed an IC50 against Hexokinase-4 of 0.033 µM.

With `Nc1ccc(S(=O)(=O)N2CCN(c3ncc(C(O)(C(F)(F)F)C(F)(F)F)cc3-c3ccc4ocnc4c3)CC2)cn1`, the microsomal CLint at 1 µM in series [1] is < 14 µL/min/mg; in series [2], 120 µL/min/mg. Also, half-maximal inhibition against Hexokinase-4 (IC50) required 0.02 µM.

Regarding `COCC#Cc1cc(C(O)(C(F)(F)F)C(F)(F)F)cnc1N1CCN(S(=O)(=O)c2ccc(N)nc2)CC1`, the microsomal CLint at 1 µM worked out at 15 µL/min/mg in series [1] and 399 µL/min/mg in series [2]. 0.005 µM corresponded to half-maximal inhibition at Hexokinase-4 (IC50).

In the case of `COc1cncc(-c2cc(C(O)(C(F)(F)F)C(F)(F)F)cnc2N2CCN(S(=O)(=O)c3ccc(N)nc3)CC2)c1`, the microsomal CLint at 1 µM in series [1] is 44 µL/min/mg; in series [2], 58 µL/min/mg. At Hexokinase-4, this compound had an IC50 of 0.017 µM.

As for `Nc1ccc(S(=O)(=O)N2CCN(c3ncc(C(O)(C(F)(F)F)C(F)(F)F)cc3-c3ccoc3)CC2)cn1`, the microsomal CLint at 1 µM in series [1] is < 14 µL/min/mg; in series [2], 57 µL/min/mg. The compound also displayed an IC50 on Hexokinase-4 of 0.019 µM.

For the compound `Cc1csc(-c2cc(C(O)(C(F)(F)F)C(F)(F)F)cnc2N2CCN(S(=O)(=O)c3ccc(N)nc3)CC2)c1`, the microsomal CLint at 1 µM in series [1] stood at 29 µL/min/mg; in series [2] it was 399 µL/min/mg. The compound also came in with an IC50 on Hexokinase-4 of 0.005 µM.

`COc1ccc(-c2cc(C(O)(C(F)(F)F)C(F)(F)F)cnc2N2CCN(S(=O)(=O)c3ccc(N)nc3)CC2)cn1`: the microsomal CLint at 1 µM is 25 µL/min/mg in series [1] and 265 µL/min/mg in series [2]. Besides, the IC50 at Hexokinase-4 amounted to 0.016 µM.

Regarding `CC(C)(O)C#Cc1cc(C(O)(C(F)(F)F)C(F)(F)F)cnc1N1CCN(S(=O)(=O)c2ccc(N)nc2)CC1`, the microsomal CLint at 1 µM was < 14 µL/min/mg in series [1] and 16 µL/min/mg in series [2]. Also, half-maximal inhibition against Hexokinase-4 (IC50) required 0.049 µM.

On to `Nc1ccc(S(=O)(=O)N2CCN(c3ncc(C(O)(C(F)(F)F)C(F)(F)F)cc3C#CC3CC3)CC2)cn1`, for which the microsomal CLint at 1 µM was < 14 µL/min/mg in series [1] and 67 µL/min/mg in series [2]. For the same compound, on Hexokinase-4, the IC50 stood at 0.033 µM.

For the compound `Cc1c(-c2cc(C(O)(C(F)(F)F)C(F)(F)F)cnc2N2CCN(S(=O)(=O)c3ccc(N)nc3)CC2)cnn1C`, the microsomal CLint at 1 µM in series [1] came to 28 µL/min/mg; in series [2], 88 µL/min/mg. Further, the IC50 on Hexokinase-4 was 0.04 µM.

Take `CN1C(=O)Cc2cc(-c3cc(C(O)(C(F)(F)F)C(F)(F)F)cnc3N3CCN(S(=O)(=O)c4ccc(N)nc4)CC3)ccc21`: the microsomal CLint at 1 µM in series [1] turned out to be 15 µL/min/mg; in series [2] it was 221 µL/min/mg. This compound gave an IC50 at Hexokinase-4 of 0.02 µM.

`Nc1ccc(S(=O)(=O)N2CCN(c3ncc(C(O)(C(F)(F)F)C(F)(F)F)cc3-c3cc4ccccc4s3)CC2)cn1`: the microsomal CLint at 1 µM in series [1] was < 14 µL/min/mg; in series [2], 315 µL/min/mg. On Hexokinase-4, the IC50 was 0.048 µM.

A word on the IC50: it is the concentration at which inhibition is half-maximal. Higher therefore signals weaker potency in that assay.

These data come from ChEMBL document CHEMBL3352455, “Small molecule disruptors of the glucokinase-glucokinase regulatory protein interaction: 4. Exploration of a novel binding pocket” (J Med Chem, 2014).
